Experimental data reported in PubChem BioAssay AID743396 (Broad Institute, 2014).
Active and inactive are the calls of the source.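 Rule for the calls: active = fitted curve reaches a 40% rise in fluorescent cells at or below the top valid dose; inactive = opposite-direction effect, or the rest.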

Experiment: autofluorescent compounds in non-GFP fibroblasts, dose response, artefact control for X-chromosome reactivation project, imaging, mTEFS fibroblasts, cherry-pick (AID 743396);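 note: raw share of Hoechst-counted cells scored GFP positive without control normalization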
Conditions: mTEFS fibroblasts autofluorescence, GFP-channel imaging, 3 days; at 19.5 µM (top of the series); cells pretreated with 5-aza-dC
For `C[C@H]1CN([C@@H](C)CO)C(=O)c2ccccc2-c2ccccc2CO[C@H]1CN(C)C(=O)[C@@H](Cc1ccccc1)N(C)C`, the % fluorescent cells increase was 0% (inactive). With `COc1ccc(C2=NOC3(CC(=O)N(c4ccc(F)cc4)C3=O)C2)cc1` (stereo unspecified) the % fluorescent cells increase was 0.016% (inactive). With `O=C1C2C3C=CC(CNS(=O)(=O)c4ccccc4[N+](=O)[O-])(O3)C2C(=O)N1c1ccccc1` (stereo unspecified) the % fluorescent cells increase was 0.044% (inactive). For `Nc1ccc(-c2nc3ccccc3[nH]2)cc1`, the % fluorescent cells increase was 0% (inactive). In the case of `CCc1ccc(CN(C)C(=O)c2cc(S(=O)(=O)N3CCOCC3)ccc2N2CCCC2)cc1`, the % fluorescent cells increase is reported as 0.027% (inactive). With `COc1ccc(-c2ccc(C#N)c(SCC(=O)NCc3ccco3)n2)cc1OC` the % fluorescent cells increase was 0% (inactive). With `C=CC[C@@H](CC(=O)N(CCO)Cc1ccccc1)C(=O)NCCOC(=O)[C@@H](CC=C)Cc1ccc(F)cc1` the % fluorescent cells increase was 0.009% (inactive). For `CC(C)N1CCc2c(sc(NC(=O)c3cc4cc([N+](=O)[O-])ccc4s3)c2C(N)=O)C1`, the % fluorescent cells increase was 0% (inactive). In the case of `CCOC(=O)C1=c2/c(=C/c3ccncc3)c(N)c(C(=O)OC)n2C(=O)C(c2ccncc2)S1` (stereo unspecified), the % fluorescent cells increase is reported as 0.042% (inactive). In the case of `COc1ccc(NC(=O)Nc2ccc3c(c2)C(=O)N([C@@H](C)CO)C[C@H](C)[C@@H](CN(C)S(=O)(=O)c2ccc(OC)cc2)O3)cc1`, the % fluorescent cells increase is reported as 0% (inactive). For `C[C@@H]1CN([C@H](C)CO)C(=O)c2cc(NS(=O)(=O)c3ccccc3)ccc2O[C@@H](C)CCCCO[C@@H]1CN(C)Cc1ccc2c(c1)OCO2`, the % fluorescent cells increase was 3.87% (inactive). With `COc1cc(CN2CCC(C(=O)NCC(C)(C)CN(C)C)CC2)ccc1OCc1ccccc1` the % fluorescent cells increase was 0.013% (inactive). With `CC(=O)N(C)C[C@@H]1Oc2ncc(-c3cccnc3)cc2C(=O)N([C@@H](C)CO)C[C@@H]1C` the % fluorescent cells increase was 0.097% (inactive). For `COc1ccc(CN(C)C[C@H]2OCCCC[C@H](C)Oc3ccc(NC(=O)Nc4ccc(F)cc4)cc3C(=O)N([C@H](C)CO)C[C@H]2C)cc1`, the % fluorescent cells increase was 0.183% (inactive). With `Cc1ccccc1NC(=O)CN1C(=O)S/C(=C\c2ccc(-c3cc(C(=O)O)ccc3C)o2)C1=O` the % fluorescent cells increase was 0% (inactive). For `O=C(Nc1c(F)cccc1F)C(c1ccccc1)c1ccccc1`, the % fluorescent cells increase was 0.034% (inactive). For `COc1ccc(C)c(-n2c(=O)n(Cc3ccccc3)c(=O)c3[nH]cnc32)c1`, the % fluorescent cells increase was 0.074% (inactive). In the case of `CC(C)(C=O)C1=CC(=O)c2ccccc2C1=O`, the % fluorescent cells increase is reported as 0% (inactive). With `Cc1ccnc(NS(=O)(=O)c2ccc3c(c2)CCO3)c1` the % fluorescent cells increase was 0.175% (inactive). In the case of `COc1ccccc1N1CCN(C(=O)CN2C(=O)c3cccc4cccc(c34)C2=O)CC1`, the % fluorescent cells increase is reported as 0.023% (inactive). For `Cn1c(=N)n(CC(=O)c2ccccc2)c2ccccc21`, the % fluorescent cells increase was 0% (inactive). In the case of `C[C@@H]1COc2cccc(NCCO)c2S(=O)(=O)N1`, the % fluorescent cells increase is reported as 0% (inactive). In the case of `O=C(OCc1cccc(F)c1)c1ccc2c(=O)n3c(nc2c1)CCC3`, the % fluorescent cells increase is reported as 0.065% (inactive). With `O=S(=O)(Nc1cc(Sc2cccc3cccnc23)c(O)c2ccccc12)c1ccccc1` the % fluorescent cells increase was -0.003% (inactive). In the case of `O=C(CCl)N=c1sccn1Cc1cccc2ccccc12`, the % fluorescent cells increase is reported as 9.31% (inactive). With `O=C1c2cccc3c([N+](=O)[O-])ccc(c23)C(=O)N1Cc1cccnc1` the % fluorescent cells increase was 11.8% (inactive). For `COc1ccccc1CN1CC[C@H]2[C@H](CO)Nc3ccc(C#Cc4ccccc4)cc3[C@H]21`, the % fluorescent cells increase was 0% (inactive). With `COc1ccc(C(=O)Nc2ccc3oc(-c4cccc(F)c4)nc3c2)cc1OC` the % fluorescent cells increase was -0.003% (inactive). For `COc1ccc(N(CC(=O)Nc2nccs2)S(=O)(=O)c2c(C)[nH]c(=O)[nH]c2=O)cc1`, the % fluorescent cells increase was 0% (inactive). With `CC1CCCC(NC(=O)CSc2cccc[n+]2[O-])C1C` (stereo unspecified) the % fluorescent cells increase was 0.029% (inactive). In the case of `O=C(C[C@@H]1C[C@@H]2c3cc(NC(=O)C4CCC4)ccc3O[C@@H]2[C@@H](CO)O1)NCc1ccc(Cl)cc1`, the % fluorescent cells increase is reported as 0.34% (inactive).
